From patent US20260041683A1, “Compounds with Anti-Acinetobacter Baumannii Activity” (University of Kentucky Research Foundation, priority 2022, published 2026)
Converted amounts (≈) assume the structure as drawn. Read-outs that look alike come from different tables or passages of the source.

What was measured:
[1] = test system: S. epidermidis ATCC 12228; experiment: MIC determination; assay type: cell-based; conditions: Staphylococcus epidermidis, ATCC12228
[2] = test system: S. enterica ATCC 14028; experiment: MIC determination; assay type: cell-based; conditions: Salmonella enterica, ATCC14028
[3] = test system: Ab ATCC 19606 (strain I); experiment: MIC determination (double dilution, Mueller-Hinton broth); assay type: cell-based, Acinetobacter baumannii; conditions: Acinetobacter baumannii, ATCC19606
Protocol: All bacterial strains listed above were stored at −80° C. All strains were streaked on Mueller-Hinton (MH) plates and allowed to grow at 37° C. overnight. […] The resulting culture was diluted 1:1000 and added to the prepared serially doubly diluted compound solutions in 96-well plates. For M. smegmatis, a 1:100 dilution of the bacteria was done in MH. All MIC values were determined using 96-well plates with low evaporation seals at least in duplicate. For each row, one well was reserved for sterile control (which consisted of 200 μL of MH medium) and another well was reserved for growth control (which consisted of 100 μL of MH medium seeded with 100 μL of bacterial culture).
(§1) Minimum inhibitory concentrations (MIC) of all compounds from the series were measured in liquid cultures of different Ab strains by a double-dilution method in Mueller-Hinton broth. Initially, the activity of all 46 compounds against Ab ATCC 19606 (a control strain) and Ab ATCC BAA1605 (a multidrug-resistant strain) (Table 1; data shown for 27 representative compounds) was measured.

[4] = test system: P. aeruginosa ATCC 27853; experiment: MIC determination; assay type: cell-based; conditions: Pseudomonas aeruginosa, ATCC27853
[5] = test system: Ab ATCC 19606; experiment: Time-kill curves
[6] = test system: S. aureus ATCC 25923; experiment: MIC determination; assay type: cell-based; conditions: Staphylococcus aureus, ATCC25923
[7] = test system: B. anthracis Sterne F32; experiment: microbe, parasite or virus in culture; assay type: cell-based; conditions: Bacillus anthracis
[8] = test system: Ab ATCC 19606; experiment: Development of resistance, 15-passage MIC assay; assay type: cell-based, Acinetobacter baumannii; conditions: Acinetobacter baumannii, ATCC19606, read-out: MIC before passaging
[9] = test system: E. coli MC1061; experiment: MIC determination; assay type: cell-based; conditions: Escherichia coli; Table 5; Mueller-Hinton medium; D = E. coli MC1061; read-out: MIC strain D
[10] = test system: Ab ATCC BAA1605 (strain J, multidrug-resistant); experiment: MIC determination; assay type: cell-based; conditions: Acinetobacter baumannii
Protocol: (§2) All bacterial strains listed above were stored at −80° C. All strains were streaked on Mueller-Hinton (MH) plates and allowed to grow at 37° C. overnight. Enough colonies were scraped from the plate and suspended in MH broth with vortexing to reach an attenuance at 600 nm (OD600) of ˜0.5. The resulting culture was diluted 1:1000 and added to the prepared serially doubly diluted compound solutions in 96-well plates. For M. smegmatis, a 1:100 dilution of the bacteria was done in MH. All MIC values were determined using 96-well plates with low evaporation seals at least in duplicate. For each row, one well was reserved for sterile control (which consisted of 200 μL of MH medium) and another well was reserved for growth control (which consisted of 100 μL of MH medium seeded with 100 μL of bacterial culture).
as §1

[11] = test system: K. pneumoniae ATCC BAA 1705; experiment: MIC determination; assay type: cell-based; conditions: Klebsiella pneumoniae, BAA1705; Table 3
[12] = test system: E. coli ATCC BAA 2469; experiment: MIC determination; assay type: cell-based; conditions: Escherichia coli, BAA2469; Table 3
[13] = test system: Gram-negative bacteria; experiment: MIC determination, panel statement; assay type: cell-based; conditions: moderate activity
[14] = test system: E. cloacae ATCC 13047; experiment: MIC determination; assay type: cell-based; conditions: Enterobacter cloacae, ATCC13047
[15] = test system: K. pneumoniae ATCC 27736; experiment: MIC determination; assay type: cell-based; conditions: Klebsiella pneumoniae, ATCC27736
[16] = test system: all 43 strains of A. baumannii (41 CDC strains and 2 ATCC strains); experiment: MIC value statistics for all A. baumannii strains; assay type: cell-based, Acinetobacter baumannii; conditions: of 43 A. baumannii strains
Protocol: as §2, with “[…].” for “For M. smegmatis, a 1:100 dilution of the bacteria was done in MH. All MIC values were determined using 96-well plates with low evaporation seals at least in duplicate.”
Having established that the observed activity is selective to A. baumannii, all synthesized compounds were tested against a panel of antibiotic resistant A. baumannii from the Antimicrobial Resistant (AR) Isolate Bank from the CDC along with strains I and J (Table Si). […]. Based on this statistical analysis, the best compound is 5e followed closely by 3e.

[17] = test system: Y. pestis CO92; experiment: microbe, parasite or virus in culture; assay type: cell-based; conditions: Yersinia pestis, CO92, read-out: MIC Y. pestis CO92
[18] = test system: M. smegmatis; experiment: MIC determination; assay type: cell-based, Mycobacterium smegmatis; conditions: Mycolicibacterium smegmatis; Table 4
[19] = test system: human embryonic kidney cells (HEK-293); experiment: Mammalian cytotoxicity assay (resazurin); conditions: HEK-293, 32 μg/mL (printed 32 g/mL for 3e), 24 h
[20] = test system: murine red blood cells (mRBCs); experiment: Hemolysis assay; assay type: cell-based; conditions: 32 g/mL as printed, 37° C.
Protocol: The cells were then washed using PBS (3×) by spinning at 1,000 rpm for 7 min. After washing, mRBCs were counted using a hemacytometer and diluted in PBS to 5×10^7 cells/mL. All the tested compounds were diluted (32 μg/mL and 8 μg/mL) in PBS in Eppendorf tubes (500 μL volume) and 100 μL were added to each of the columns of the 96-well plate except for column 1. A positive control (1% Triton-X®, TX), a negative control (DMSO), and wells with no mRBCs to account for any background absorbance were used in the 96-well plate. After the addition of the compounds to the plate, 100 μL of mRBCs were added to each well and plates were incubated at 37° C. for 30 min. The plates were then spun at 1,000 rpm for 10 min till the mRBCs settle at the bottom of the plates. 100 μL of supernatant was then transferred to a new 96-well plate and the absorbance at 500 nm was read using a spectrophotometer (SpectraMax M5). Percent hemolysis was calculated using the following equation after subtraction of the background absorbance.
To test the safety of the compounds, they were for exampled for hemolytic effect on murine red blood cells (FIG. 7).

[21] = Table 5, Mueller-Hinton medium, C = S. epidermidis ATCC 12228, read-out: MIC strain C
[22] = Table 5, Mueller-Hinton medium, H = S. enterica ATCC 14028, read-out: MIC strain H
[23] = Table 5, Mueller-Hinton medium, I = A. baumannii ATCC 19606, read-out: MIC strain I
[24] = Table 5, Mueller-Hinton medium, G = P. aeruginosa ATCC 27853, read-out: MIC strain G
[25] = Table 5, Mueller-Hinton medium, B = S. aureus ATCC 25923, read-out: MIC strain B
[26] = STERNEF32, read-out: MIC strain A
[27] = Table 5, Mueller-Hinton medium, J = A. baumannii BAA1605, read-out: MIC strain J
[28] = Table 1, control strain, read-out: MIC Ab ATCC 19606
[29] = Table 3, read-out: MIC P. aeruginosa ATCC 27853
[30] = Table 5, Mueller-Hinton medium, E = E. cloacae ATCC 13047, read-out: MIC strain E
[31] = Table 3, read-out: MIC K. pneumoniae ATCC 27736
[32] = Table 5, Mueller-Hinton medium, F = K. pneumoniae ATCC 27736, read-out: MIC strain F
[33] = Table 1, multidrug-resistant strain, read-out: MIC Ab ATCC BAA 1605
[34] = Table 3, positive control strain, read-out: MIC A. Baumannii ATCC BAA 1605

Compound	MIC [1, 21]	MIC [2, 22]	MIC [3, 23]	MIC [4, 24]	MIC [6, 25]	MIC [7, 26]	MIC [9]	MIC [10, 27]	MIC [3, 28]	MIC [13]	MIC [14, 30]	MIC [15, 32]	number of compound/strain combinations with MIC value 0.25 μg/mL [16]	number of compound/strain combinations with MIC value 0.5 μg/mL [16]	number of compound/strain combinations with MIC value 1 μg/mL [16]	number of compound/strain combinations with MIC value ≤0.125 μg/mL [16]	MIC [10, 33]	further results
O=C(O)c1cn(C2CC2)c2cc(N3CCNCC3)c(F)cc2c1=O [CIP, ciprofloxacin, reference compound]	≤ 0.0625 µg/mL	≤ 0.0625 µg/mL	1 µg/mL (≈ 3.02 µM)	0.25 µg/mL (≈ 0.754 µM)	≤ 0.0625 µg/mL	1 µg/mL (≈ 3.02 µM)	≤ 0.0625 µg/mL	2 µg/mL (≈ 6.04 µM)										bacteriostatic or bactericidal (time-kill) ([5]; 1×MIC and 4×MIC, up to 24 h): bactericidal; reduction of colony count ([5]; time-kill): 4100 fold; MIC [8]: 2 µg/mL (≈ 6.04 µM)
O=C(NNc1cccc(Cl)c1)c1ccccn1 [Compound 2b]	> 64 µg/mL	16 µg/mL (≈ 64.6 µM)	2 µg/mL (≈ 8.07 µM)	> 64 µg/mL	> 64 µg/mL	> 64 µg/mL	4 µg/mL (≈ 16.1 µM)	1 µg/mL (≈ 4.04 µM)	2 µg/mL (≈ 8.07 µM)	4 to 16 µg/mL (≈ 16.1 to 64.6 µM)	4 µg/mL (≈ 16.1 µM)	16 µg/mL (≈ 64.6 µM)	13	13	12	2	< 0.5 µg/mL	MIC [11]: 16 µg/mL (≈ 64.6 µM); MIC [12]: 8 µg/mL (≈ 32.3 µM); MIC [4, 29]: > 128 µg/mL; MIC [15, 31]: 8 µg/mL (≈ 32.3 µM); number of compound/strain combinations with MIC value 2 μg/mL [16]: 3; MIC [10, 34]: ≤ 0.5 µg/mL
COc1cccc(NNC(=O)c2ccccn2)c1 [Compound 2c]									0.5 µg/mL (≈ 2.06 µM)				5	6	28	1	1 µg/mL (≈ 4.11 µM)	MIC [11]: > 128 µg/mL; MIC [12]: > 128 µg/mL; MIC [4, 29]: > 128 µg/mL; MIC [15, 31]: > 128 µg/mL; number of compound/strain combinations with MIC value 2 μg/mL [16]: 3; MIC [10, 34]: 1 µg/mL (≈ 4.11 µM)
O=C(NNc1ccc(Cl)cc1)c1ccccn1 [Compound 2e]	> 64 µg/mL	64 µg/mL (≈ 258 µM)	0.25 µg/mL (≈ 1.01 µM)	> 64 µg/mL	> 64 µg/mL	> 64 µg/mL	16 µg/mL (≈ 64.6 µM)	0.25 µg/mL (≈ 1.01 µM)	0.25 µg/mL (≈ 1.01 µM)		64 µg/mL (≈ 258 µM)	64 µg/mL (≈ 258 µM)	16	21	1	5	0.25 µg/mL (≈ 1.01 µM)	MIC ([1]; Table 4, read-out: MIC S. epidermidis ATCC 12228): > 16 µg/mL; MIC ([2]; Table 4, read-out: MIC S. enterica ATCC 14028): > 16 µg/mL; MIC [17]: 16 µg/mL (≈ 64.6 µM); MIC ([14]; Table 4, read-out: MIC E. cloacae ATCC 13047): > 16 µg/mL; MIC ([6]; Table 4, read-out: MIC S. Aureus ATCC 25923): > 16 µg/mL; MIC [18]: 4 µg/mL (≈ 16.1 µM); MIC ([7]; STERNEF32, read-out: MIC B. anthracis Sterne F32): > 16 µg/mL
O=C(NNc1ccc(Cl)cc1)c1cccc(F)n1 [Compound 5e]	> 64 µg/mL	16 µg/mL (≈ 60.2 µM)	≤ 0.125 µg/mL	> 64 µg/mL	> 64 µg/mL	> 64 µg/mL	16 µg/mL (≈ 60.2 µM)	≤ 0.125 µg/mL	0.125 µg/mL (≈ 0.47 µM)	4 to 16 µg/mL (≈ 15.1 to 60.2 µM)	16 µg/mL (≈ 60.2 µM)	16 µg/mL (≈ 60.2 µM)	21	2		20	0.125 µg/mL (≈ 0.47 µM)	
O=C(NNc1ccc(Cl)cc1)c1ccccc1 [Compound 10e]	64 µg/mL (≈ 259 µM)	64 µg/mL (≈ 259 µM)	0.25 µg/mL (≈ 1.01 µM)	> 64 µg/mL	64 µg/mL (≈ 259 µM)	> 64 µg/mL	16 µg/mL (≈ 64.9 µM)	0.5 µg/mL (≈ 2.03 µM)		4 to 16 µg/mL (≈ 16.2 to 64.9 µM)	16 µg/mL (≈ 64.9 µM)	16 µg/mL (≈ 64.9 µM)	23	6	1	13		
O=C(NNc1cccc(F)c1)c1ccc2ccccc2n1 [Compound 12a]													8	21	14			inhibition of growth [19]: 40%; hemolysis [20]: 20%
